Results published in patent publication US12613249B2 (THE ROYAL INSTITUTION FOR THE ADVANCEMENT OF LEARNING / …, priority 2019, dated 2026).
Square brackets hold non-standard residues; d marks the D form. Peptide text beside a SMILES is read from it.

Legend:
mouse plasma = settings: C57BL/6 male and female mice, 37° C., up to 24 h
metalloproteases [1] = assay: Metalloprotease inhibition in APP-overexpressing SH-SY5Y cells, 4-plex MSD; type: cell-based, human; settings: supernatant
Text: (§1) Using the ELISA Conversion Kit from Meso Scale Discovery (MSD, USA), an electrochemiluminescence-based assay was developed (neo-epitope specific Aβ34 and the sulfo-tagged 6E10 (binds to the N-terminus of human Aβ) or the sulfo-tagged 4G8 for murine samples (binds to the mid domain of Aβ)). High-bind or custom-printed 4-plex plates (using the mab34, 4G8 (Biolegend) for pan-Aβ assay, G2−10 for 1-plex Aβ40 assay, and MSD's validated mouse monoclonal anti-Aβ38, anti-Aβ40, as well as anti-Aβ42 antibodies, see MSD Aβ peptide V-PLEX) were blocked (MSD 5% Blocker A in PBS) for 1 h at 22° C. and washed three times with PBS-T for 1 min. at 22° C., loaded with SULFO-TAG™ 6E10 or 4G8 detection antibody (diluted to 1× in MSD Diluent 100) and sample or peptide calibrator (in MSD Diluent 35 or cell culture medium), and incubated for 16 h at 4° C. with shaking at 600 rpm. After three washing steps with PBS-T for 1 min. at 22° C., 150 μL 2×MSD read buffer were added per well. All plates were read using a MSD QuickPlex SQ 120 Imager and data analyzed using MSD Workbench® software. Standard curves were fitted using a non-linear four-parameter logistic fit with 1/y^2 weighting. The equation is: […]

metalloproteases [2] = assay: Metalloprotease inhibition in BACE1-overexpressing SH-SY5Y cells, 4-plex MSD; type: cell-based, human; settings: supernatant
Text: as §1

[3] = Ex-vivo stability in mouse liver S9-fraction, MALDI-TOF MS; type: in vitro ADME, C57BL/6 mice; settings: mouse liver S-9 fraction, after 24 h
Method: (§2) The stability of D-AIP in mouse plasma, blood and liver S-9 fraction was investigated to ascertain the metabolic resistance towards proteases and enzymatic activities in these matrices. Whole mouse blood obtained from healthy C57BL/6 male and female mice (6 mice in total) were collected in lithium heparin containing tubes, pooled and stored at 4° C. prior to its use. A fraction of the pooled blood was immediately centrifuged at 1500×g for 10 min at 4° C. to obtain the plasma. The whole blood and plasma samples were spiked with PBS (as control) or AIP (L-AIP, D-AIP or sD-AIP respectively) to make a final concentration of 1 ug/mL and incubated at 37° C. Initial samples were withdrawn to represent t=0 prior to incubation and others were withdrawn 1, 3 and 24 h respectively. Fresh mouse liver also obtained from C57BL/6 male and female mice were pooled, homogenized in 0.15 M Potassium chloride (KCl) and centrifuged at 9000×g. The supernatant represents liver homogenate (S-9) fraction which was mixed with other buffers to formulate the liver S-9 mix as previously described (Kolrep et al., 2017, Toxicol In Vitro, 42:161-170). Liver S-9 mix were spiked with AIP to make a final concentration of 1 μg/mL (L-AIP, D-AIP or sD-AIP respectively) and incubated at 37° C. Just after the addition of NADPH, 100 μL aliquot which represents t=0 samples were withdrawn and others were sampled accordingly at predetermined time points. 400 μL of ice cold MeOH was added to the spiked plasma, blood or liver S-9 fraction respectively, to precipitate the microsomal protein. The samples were then vigorously mixed for 30 s to facilitate extraction and centrifuged for 10 minutes at 13000 rpm, the supernatant was subjected to sample clean up by C18 ZipTip (EMD Millipore Corporation), the eluates were spotted with CHCA matrix on the ground steel MALDI-TOF target and analyzed with MALDI-TOF MS. Applying the t=0 peak area as 100% the intensities of the other time points were compared relatively for interpretation. […]

[4] = Ex-vivo stability in mouse whole blood, MALDI-TOF MS; type: in vitro ADME; settings: both sexes, C57BL/6, 24 h incubation, read-out: decrease of signal
Method: as §2

## D-amino acids of RGTFEGKF (H-[dR]G[dT][dF][dE]G[dK][dF]-OH; N-terminus and C-terminus assumed; SMILES C[C@H](O)[C@@H](NC(=O)CNC(=O)[C@H](N)CCCNC(=N)N)C(=O)N[C@H](Cc1ccccc1)C(=O)N[C@H](CCC(=O)O)C(=O)NCC(=O)N[C@H](CCCCN)C(=O)N[C@H](Cc1ccccc1)C(=O)O)
Mouse plasma
  not cleaved: relatively stable over 24 h in mouse plasma

## CC(C)C[C@H](NP(=O)(O)O[C@@H]1O[C@@H](C)[C@H](O)[C@@H](O)[C@H]1O)C(=O)N[C@@H](Cc1c[nH]c2ccccc12)C(=O)O [PA, phosphoramidon]
Metalloproteases [1]
  increase of Aβ34: approximately 9 fold
  increase of Aβ38, Aβ40, and Aβ42: 2-3 fold
Metalloproteases [2]
  Aβ38, Aβ40, and Aβ42 levels: not significantly changed
  increase of Aβ34: about 2.5 fold

## C[C@H](O)[C@@H](NC(=O)[C@@H](Cc1ccccc1)NC(=O)[C@@H](CCCCN)NC(=O)[C@@H](CCCNC(=N)N)NC(=O)[C@@H](Cc1ccccc1)NC(=O)[C@H](N)CCC(=O)O)C(=O)NCC(=O)NCC(=O)O [sD-AIP, reference compound] (H-[dE][dF][dR][dK][dF][dT]GG-OH; N-terminus and C-terminus assumed)
[3]
  signal intensity compared to the unincubated sample: four-fold reduced intensity
[4]
  metabolised at 24 h, 1 ug/mL: ~50%
